Article PMC7067379, “Mapping the S1 and S1’ subsites of cysteine proteases with new dipeptidyl nitrile inhibitors as trypanocidal agents” (PLoS Neglected Tropical Diseases, 2020)
Like-named read-outs stand apart in the source and are kept apart here.

What was measured:
[1] = target: Leishmania mexicana CPB (LmCPB) (Leishmania mexicana, UniProt P36400); assay: LmCPB enzyme inhibition; type: biochemical; conditions: for remaining activity at 10 µM: replicates = 2; for Ki: SD lower than 15%, read-out: pKi LmCPB (converted)
Description: (§1) Enzyme inhibition studies for Cz and LmCPB were performed as previously described for Cz. The experimental procedures are described in the Supporting Information (see chapter S3). Cathepsins B, L, S were assayed as reported.

cathepsin L (CatL) = cathepsin L (CatL) (Homo sapiens, UniProt P07711); assay: Cathepsin L enzyme inhibition; type: biochemical; conditions: for remaining activity at 10 µM: replicates = 2, n.i. = no inhibition observed at 10 μM; for Ki: SD lower than 15%, read-out: pKi CatL (converted)
recombinant cruzain (Cz) = recombinant cruzain (Cz) (Trypanosoma cruzi, UniProt P25779); assay: Cruzain enzyme inhibition; type: biochemical; conditions: for remaining activity at 10 µM: replicates = 2; for Ki: SD lower than 15%, read-out: pKi Cz (converted)
Description: as §1

cathepsin S (CatS) = cathepsin S (CatS) (Homo sapiens, UniProt P25774); assay: Cathepsin S enzyme inhibition; type: biochemical; conditions: for Ki: SD lower than 15%, read-out: pKi CatS (converted)
Description: as §1

[2] = target: T1, Human recombinant cathepsin K (Homo sapiens, UniProt P43235); assay: Cathepsin K assay; type: biochemical; conditions: for remaining activity at 10 µM: read-out: remaining activity (%) at 10 μM, CatK; for Ki: SD lower than 15%, read-out: pKi CatK (converted)
T1 sequence (P43235 115-329): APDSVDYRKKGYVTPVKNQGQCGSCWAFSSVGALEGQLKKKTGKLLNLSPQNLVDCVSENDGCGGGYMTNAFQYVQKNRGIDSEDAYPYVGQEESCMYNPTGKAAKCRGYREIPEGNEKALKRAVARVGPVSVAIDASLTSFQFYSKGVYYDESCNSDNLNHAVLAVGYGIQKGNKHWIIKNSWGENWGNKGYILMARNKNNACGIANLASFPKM
Procedure, shortened: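 Recombinant human cathepsin K, pre-activated 30 min at 37 °C in pH 5.0 citrate buffer with 5 mM DTT and CHAPS, was used at 1.73 ng/mL final. Reaction was started by adding enzyme to Z-Leu-Arg-AMC plus inhibitor (2% DMSO). AMC fluorescence (ex 360/em 440 nm) was followed 20 min at 25 °C.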

[3] = test system: T. cruzi Tulahuen LacZ strain, intracellular amastigote forms; assay: In vitro trypanocidal activity on intracellular amastigote forms (Tulahuen strain); type: cell-based, Trypanosoma cruzi; conditions: for EC50: Trypanosoma cruzi, TULAHUEN; for SI (selective index): from EC50 (T. cruzi) and CC50 (LLCMK2)
Procedure, shortened: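 LLCMK2 cells infected with Tulahuen LacZ trypomastigotes for 24 h at 37°C, 5% CO2; extracellular parasites washed away. Amastigote-infected cells exposed 72 h to compound, 1.95–250 μM serial dilutions, in DMSO. β-galactosidase read-out with CPRG substrate (400 μM, 0.3% Triton X-100, pH 7.4).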

cathepsin B (CatB) = cathepsin B (CatB) (Homo sapiens, UniProt P07858); assay: Cathepsin B enzyme inhibition; type: biochemical; conditions: 10 μM; replicates = 2; n.i. = no inhibition observed at 10 μM
[4] = Mammalian cytotoxicity assay (MTT); type: cell-based; conditions: rhesus monkey, LLCMK2 cells;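 note: Read-out is absorbance at 570 nm of formazan taken up in DMSO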
Description: (§2) LLCMK2 cells were cultured in 96-well plates at a concentration of 5 x 10^4 cells/ml. After 48 h, the plates were washed twice with PBS and 200 μL RPMI medium was added with serial dilutions of the compounds and benznidazole (1.95 μM to 250 μM) in triplicate. After 72 h at 37 °C, the cytotoxic activity of the compounds was determined by the classical MTT [3- (4,5-dimethylthiazol-2-yl) -2,5-diphenyltetrazolium bromide] method. Briefly, 50 μL MTT dissolved in PBS (2.0 mg mL^-1) was added to each well and the plates were incubated for 4 h at 37 °C. The formed formazan crystals were dissolved with DMSO (50 μL/well) and the absorbance of the samples was measured by spectrophotometer at 570 nm after 30 min.

LLCMK2 cells = assay: Mammalian cytotoxicity assay (MTT); type: cell-based; conditions: LLCMK2, 72 h, MTT; Table 2;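 note: Read-out is absorbance at 570 nm of formazan taken up in DMSO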
Description: as §2

[5] = dog, in vivo; cited from earlier work
T. cruzi = test system: T. cruzi; set-up: method as in PMID 14580960; conditions: dogs ref 10, 11; cited from earlier work
T. cruzi infection = test system: T. cruzi infection; set-up: method as in PMID 14580960; conditions: mice ref 10, 11; cited from earlier work
[6] = 10 μM, replicates = 2, n.i. = no inhibition observed at 10 μM
[7] = 72 h, amastigote, Tulahuen strain, 72 h, Table 2, read-out: EC50 trypanocidal activity
[8] = T. cruzi amastigote form, S1 Table, read-out: pEC50 (converted)
[9] = LLCMK2, 72 h, MTT, Table 2, read-out: CC50 cytotoxicity
[10] = S1 Table, maximum concentration used 250 µM, read-out: CC50
[11] = S1 Table, maximum concentration used 250 µM, read-out: EC50 T. cruzi

Sequence of Leishmania mexicana CPB (LmCPB) (P36400 126-443): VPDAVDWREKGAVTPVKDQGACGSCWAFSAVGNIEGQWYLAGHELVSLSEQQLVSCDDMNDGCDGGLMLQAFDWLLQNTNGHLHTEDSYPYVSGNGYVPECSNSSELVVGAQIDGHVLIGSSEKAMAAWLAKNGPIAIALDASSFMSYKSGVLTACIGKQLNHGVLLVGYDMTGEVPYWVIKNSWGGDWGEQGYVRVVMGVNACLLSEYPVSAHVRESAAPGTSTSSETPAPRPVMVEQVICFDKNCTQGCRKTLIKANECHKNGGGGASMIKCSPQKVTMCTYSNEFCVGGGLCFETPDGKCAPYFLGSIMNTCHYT
Sequence of cathepsin L (CatL) (P07711 114-333): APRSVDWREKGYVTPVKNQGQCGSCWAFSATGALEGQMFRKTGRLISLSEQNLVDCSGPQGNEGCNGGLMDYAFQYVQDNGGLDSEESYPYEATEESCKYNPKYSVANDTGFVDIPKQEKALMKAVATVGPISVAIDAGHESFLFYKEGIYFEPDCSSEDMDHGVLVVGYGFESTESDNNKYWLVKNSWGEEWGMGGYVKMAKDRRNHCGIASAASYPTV
Sequence of cathepsin S (CatS) (P25774 115-331): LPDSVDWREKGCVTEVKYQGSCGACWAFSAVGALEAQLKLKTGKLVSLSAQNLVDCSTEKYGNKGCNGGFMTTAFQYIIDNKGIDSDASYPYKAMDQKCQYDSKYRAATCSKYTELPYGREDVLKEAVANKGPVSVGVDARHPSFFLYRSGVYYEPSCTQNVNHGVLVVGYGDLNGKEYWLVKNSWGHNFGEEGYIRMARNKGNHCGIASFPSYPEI
Sequence of recombinant cruzain (Cz) (P25779 123-337): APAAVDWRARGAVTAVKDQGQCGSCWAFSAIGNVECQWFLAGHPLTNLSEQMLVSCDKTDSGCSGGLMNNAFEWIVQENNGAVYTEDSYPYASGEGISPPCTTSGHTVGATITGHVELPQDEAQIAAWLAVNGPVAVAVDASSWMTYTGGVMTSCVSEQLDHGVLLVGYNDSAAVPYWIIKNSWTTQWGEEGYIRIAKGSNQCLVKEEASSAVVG

SMILES	melting point	remaining activity at 10 µM [1]	remaining activity at 10 µM (cathepsin L (CatL))	remaining activity at 10 µM (recombinant cruzain (Cz))	remaining activity at 10 µM [2, 6]	EC50 [3, 7]	EC50 [3, 8]	CC50 at 72 h [4, 9]	Ki (cathepsin L (CatL))	Ki (cathepsin S (CatS))	SI (selective index) ([3]; Table 2)	remaining activity at 10 µM (cathepsin B (CatB))	Ki (recombinant cruzain (Cz))	further results
C[C@H](OCc1ccccc1)[C@H](C#N)NC(=O)[C@H](Cc1ccccc1)NC(=O)c1cc(C(C)(C)C)nn1C [Compound 57, N-((S)-1-(((1S,2S)-2-(Benzyloxy)-1-cyanopropyl)amino)-1-oxo-3-phenylpropan-2-yl)-3-(tert-butyl)-1-methyl-1H-pyrazole-5-carboxamide]	123 to 124 °C	72%	85%	75%	97%	4.3 ± 0.32 µM	3.98 µM	~125 µM	–	–	–	–	–	remaining activity (%) at 10 μM, CatS (cathepsin S (CatS); [6]): n.i.^c; remaining activity (%) at 10 μM, CatB (cathepsin B (CatB)): n.i.^c; CC50 at 72 h [4, 10]: 141 µM; CC50 (LLCMK2 cells): > 100 µM
CC(C)C[C@H](NC(=O)c1cc(C(C)(C)C)nn1C)C(=O)N[C@@H](C#N)[C@H](C)OCc1ccccc1 [Compound 59, N-((S)-1-(((1S,2S)-2-(Benzyloxy)-1-cyanopropyl)amino)-4-methyl-1-oxopentan-2-yl)-3-(tert-butyl)-1-methyl-1H-pyrazole-5-carboxamide]	110 to 111 °C	75%	90%	60%	–	–	> 100 µM	–	–	–	–	–	–	remaining activity at 10 µM (cathepsin S (CatS); [6]): 85%; remaining activity (%) at 10 μM, CatK [2, 6]: n.i.^c; EC50 [3, 11]: > 100 µM; EC50 ([3]; amastigote forms of T. cruzi (Tuhaluen strain), Figs 12-14, unit inferred, read-out: EC50): > 100 µM; remaining activity (%) at 10 μM, CatB (cathepsin B (CatB)): n.i.^c; CC50 at 72 h [4, 10]: > 100 µM
C[C@@H](O)[C@@H](C#N)NC(=O)[C@H](Cc1ccccc1)NC(=O)c1cc(C(C)(C)C)nn1C [Compound 65, 3-(tert-Butyl)-N-((S)-1-(((1R,2R)-1-cyano-2-hydroxypropyl)amino)-1-oxo-3-phenylpropan-2-yl)-1-methyl-1H-pyrazole-5-carboxamide]	159 to 160 °C	69%	–	68%	86%	70.8 ± 8.79 µM	79.4 µM	> 100 µM	5.01 µM	5.01 µM	> 1.4	92%	–	–
C[C@H](O)[C@H](C#N)NC(=O)[C@H](Cc1ccccc1)NC(=O)c1cc(C(C)(C)C)nn1C [Compound 66, 3-(tert-Butyl)-N-((S)-1-(((1S,2S)-1-cyano-2-hydroxypropyl)amino)-1-oxo-3-phenylpropan-2-yl)-1-methyl-1H-pyrazole-5-carboxamide]	145 to 147 °C	–	–	–	81%	30 ± 2.71 µM	31.6 µM	> 100 µM	2.51 µM	20 µM	> 3.3	89%	3.98 µM	Ki [1]: 15.8 µM
CC(C)C[C@H](NC(=O)c1cc(C(C)(C)C)nn1C)C(=O)N[C@H](C#N)[C@@H](C)O [Compound 67, 3-(tert-Butyl)-N-((S)-1-(((1R,2R)-1-cyano-2-hydroxypropyl)amino)-4-methyl-1-oxopentan-2-yl)-1-methyl-1H-pyrazole-5-carboxamide]	118 to 119 °C	–	–	–	–	24.4 ± 2.36 µM	25.1 µM	> 100 µM	0.1 µM	10 µM	> 4.1	92%	0.0794 µM	Ki [1]: 0.2 µM; Ki [2]: 0.0158 µM
CC(C)C[C@H](NC(=O)c1cc(C(C)(C)C)nn1C)C(=O)N[C@@H](C#N)[C@H](C)O [Compound 68, 3-(tert-Butyl)-N-((S)-1-(((1S,2S)-1-cyano-2-hydroxypropyl)amino)-4-methyl-1-oxopentan-2-yl)-1-methyl-1H-pyrazole-5-carboxamide]	111 to 113 °C	54%	88%	–	–	16 ± 4 µM	15.8 µM	> 100 µM	–	–	> 6.3	93%	3.98 µM	remaining activity at 10 µM (cathepsin S (CatS); [6]): 83%; Ki [2]: 7.94 µM; EC50 [3, 11]: 16.3 µM
CN1CCN(C(=O)N[C@@H](Cc2ccccc2)C(=O)N[C@H](/C=C/S(=O)(=O)c2ccccc2)CCc2ccccc2)CC1 [Compound K777]	–	–	–	–	–	–	–	–	–	–	–	–	–	side effects [5]: substantial side effects; effect on parasite growth (T. cruzi): reduce parasite growth; rescue from lethal infection (T. cruzi infection): rescue mice of a lethal experimental T. cruzi infection
